Experimental data taken from patent publication US4855304A, “Dinucleoside pyrophosphates and pyrophosphate homologs as plant antivirals” (Repligen Corporation, priority 1985, dated 1989).
Where two headings read alike, the source gives them in different places.

Experiments:
[1] = tested on: TMV (tobacco mosaic virus) replication in intact N. glutinosa plants; assay: Antiviral activity in N. glutinosa intact plants, infectivity test (local lesions); format: in vivo, tobacco mosaic virus; Nicotiana glutinosa; details: for induced resistance to TMV infection in the non-treated half-leaf: 1 μM (10^-6 M)
Procedure: (§1) Nicotiana glutinosa and N. tabacum var. samsum plants were grown in potting medium in greenhouse conditions (25±3° C., and constant illumination). The plants were fertilized with a commercial fertilizer every two weeks. Plants were used at 5-8 leaf stage (Devash, Y., Biggs, S. and Sela, I. [1982] Science 216: 1415-1416; Devash, Y. et al. [1984] Jour. Biol. Chem. 259: 3482-3486).
The ability of the antiviral dinucleotides to inhibit TMV replication in intact N. glutinosa plants (containing N-gene for TMV localization) was determined by infectivity tests. Solutions containing 5 μg/ml TMV, 0.1 μg/ml carborundum, and antiviral dinucleotide were applied to 5 half-leaves of N. glutinosa. The opposite half-leaves served as controls and were inoculated with infecting solution containing TMV and carborundum but no dinucleotides. The infection was allowed to proceed 48 hr. Inhibition of TMV replication was calculated as the percent of local lesions produced in antiviral compound treated half-leaves, as compared to control half-leaves.

[2] = tested on: TMV (tobacco mosaic virus) in N. tabacum plants; assay: Root application to N. tabacum intact plants (TMV content by ELISA); format: in vivo, tobacco mosaic virus; Nicotiana tabacum; details: for suppression (inhibition) of the virus: 1 μM (10^-6 M), exposure of plant roots; for % Protection / ng TMV/g of leaves: 1 μM, roots, 2 hr; for ng TMV/g of leaves: control 200
Procedure: as §1
Nicotiana tabacum plants were used as a source of plant tissue in which TMV is spread systemically.
(a) Root application: N. tabacum plants were removed from their pots and transferred into 50 ml tubes containing 10 ml of 10 mM HEPES-KOH, pH 7.6, and the antiviral dinucleotides. Two hr later, plants were transferred into 50 ml tubes lacking the antiviral compound and were inoculated by TMV as described above. Twenty-four hr later leaves were homogenized in 0.01M sodium phosphate buffer, pH 7.6, (1 g leaves/3 ml buffer) and TMV content was determined by ELISA.
(§2) The TMV content of the homogenates was determined by ELISA essentially by the method of Clark and Adams ([1977] J. Gen. Virol. 34: 475-483) but with the following order of layers on the microtiter plates.
(§3) (a) the γ-globulin fraction of a serum obtained from a chicken immunized against TMV was absorbed directly to the plate.
(§4) (b) The next layer was the tested sample (at various dilutions) or a series of purified TMV suspensions at known concentrations (calibration curve).
(§5) (c) The third layer was the γ-globulin from the serum of a TMV-immunized rabbit.
(§6) (d) The final layer was goat antibody to rabbit immunoglobulin G conjugated with alkaline phosphatase (Sigma). The release of phosphate from p-nitrophenyl phosphate due to the antibody-conjugated alkaline phosphatase was monitored spectrophotometrically with a Microplate reader (Dynatech Diagnostics, Inc. South Windham, ME) and was proportional to TMV concentration in a log linear manner for about two logs (<2 ng to>200 ng). (Devash, Y., Biggs, S. and Sela, I. [1982] Science 216: 1415-1416)
In order to establish the relationship of the induced resistance to the N-gene for viral localization and to the transmission ability of the compounds, a comparison between leaf application and root application of antiviral dinucleotides to N. tabacum plants was made. N. tabacum plants were removed into vials containing 10 ml of 10 mM HEPES-KOH, pH 7.6, and 1 μM of antiviral dinucleotide. The plant roots were allowed to remain in the solutions for 2 hr and then were transferred to vials containing the buffer without the antiviral compounds.
The plants then were infected with TMV as above. (See section 4. Antiviral activity on N. tabacum intact plants, paragraph [a].) Another group of N. tabacum plants was tested as described in the above-noted section, paragraph (b).

[3] = tested on: TMV (tobacco mosaic virus) replication in TMV-infected tobacco leaf discs; assay: Antiviral activity in TMV-infected leaf discs (TMV content by ELISA); format: cell-based, tobacco mosaic virus; leaf discs of N. tabacum var. samsun; parameters: key to TMV content: N.I.: no inhibition; details: for ng TMV/ml: control 550 (Table 4)
Procedure: Assays for antiviral activity in TMV-infected leaf discs were done using leaves of N. tabacum var. samsun in which TMV is systemically spread. Leaves were mechanically inoculated with purified TMV (5 μg/ml in 0.01M sodium phosphate buffer, pH 7.6, containing 0.1 g/ml of carborundum as an abrasive). Immediately after infection, leaf discs (6.5 mm diameter) were punched out of the inoculated leaves and placed in a beaker containing 0.01M sodium phosphate, pH 7.6.
selected at random from this common pool and placed onto separate petri dishes, each containing 18 ml of 10 mM 4-(2-hydroxyethyl)-1-piperazine ethanesulfonic acid (HEPES)-KOH, pH 7.05, 188 mg/L Na2 HPO4 --7H2 O. […] At the end of the 1 hr incubation, the buffer containing the antiviral dinucleotide was replaced by a buffer lacking the antiviral dinucleotide for another hr. The discs were then washed with 0.01M sodium phosphate, pH 7.6, and were allowed to incubate for an additional 72 hr in phosphate buffer (Devash, Y., Biggs, S. and Sela, I. [1982] Science 216: 1415-1416; Devash, Y. et al. [1984] J. Biol. Chem. 259: 3482-3486). The discs were homogenized in 0.01M sodiuM phosphate buffer, pH 7.6, and the TMV content was determined by enzyme-linked immunosorbent assay (ELISA) as described below.
as §2, §3, §4, §5, §6
The γ-globulin fraction of serum obtained from chickens and rabbits immunized against TMV were generous gifts from Professor Ilan Sela, The Hebrew University of Jerusalem, Agriculture Faculty, Rehobot, Israel.

[4] = 10 nM (10^-8 M), non-treated half-leaf
[5] = 10 nM (10^-8 M), treated half-leaf
[6] = 100 nM (10^-7 M), non-treated half-leaf
[7] = 100 nM (10^-7 M), treated half-leaf
[8] = 1000 nM (10^-6 M), non-treated half-leaf
[9] = 1000 nM (10^-6 M), treated half-leaf

## Nc1ncnc2c1ncn2[C@@H]1O[C@H](COP(=O)(O)OP(=O)(O)OC[C@H]2O[C@@H](n3ccc(=O)[nH]c3=O)[C@H](O)[C@@H]2O)[C@@H](O)[C@H]1O [A5'pp5'U, adenosine 5',5'"-p^1,p^2 -diphospho-uridine]
[1]; [4]
  percent protection as compared to control TMV infected leaves: 5.2%
[1]; [5]
  percent protection as compared to control TMV infected leaves: 38.1%
[1]; [6]
  percent protection as compared to control TMV infected leaves: 0%
[1]; [7]
  percent protection as compared to control TMV infected leaves: 0%
[1]; [8]
  percent protection as compared to control TMV infected leaves: 21.0%
[1]; [9]
  percent protection as compared to control TMV infected leaves: 80.2%

## Nc1nc2c(ncn2[C@@H]2O[C@H](COP(=O)(O)OP(=O)(O)OC[C@H]3O[C@@H](n4cnc5c(N)ncnc54)[C@H](O)[C@@H]3O)[C@@H](O)[C@H]2O)c(=O)[nH]1 [A5'pp5'G, adenosine 5',5'"-p^1,p^2 -diphospho-guanosine]
[1]; [4]
  percent protection as compared to control TMV infected leaves: 59.8%
[1]; [5]
  percent protection as compared to control TMV infected leaves: 84.8%
[1]; [6]
  percent protection as compared to control TMV infected leaves: 44.7%
[1]; [7]
  percent protection as compared to control TMV infected leaves: 89.5%
[1]; in words
  induced resistance to TMV infection in the non-treated half-leaf: resulted in an induced resistance to TMV infection even in the non-treated half-leaf
[1]; [8]
  percent protection as compared to control TMV infected leaves: 100%
[1]; [9]
  percent protection as compared to control TMV infected leaves: 100%
[2]
  suppression (inhibition) of the virus: 98-100%
  % Protection: 98%
  ng TMV/g of leaves: 4 ng TMV/g of leaves

## Nc1ccn([C@@H]2O[C@H](COP(=O)(O)OP(=O)(O)OC[C@H]3O[C@@H](n4cnc5c(N)ncnc54)[C@H](O)[C@@H]3O)[C@@H](O)[C@H]2O)c(=O)n1 [A5'pp5'C, adenosine 5',5'"-p^1,p^2 -diphospho-cytidine]
[1]; [4]
  percent protection as compared to control TMV infected leaves: 36.1%
[1]; [5]
  percent protection as compared to control TMV infected leaves: 55.0%
[1]; [6]
  percent protection as compared to control TMV infected leaves: 35.5%
[1]; [7]
  percent protection as compared to control TMV infected leaves: 51.9%
[1]; in words
  induced resistance to TMV infection in the non-treated half-leaf: resulted in an induced resistance to TMV infection even in the non-treated half-leaf
[1]; [8]
  percent protection as compared to control TMV infected leaves: 32.9%
[1]; [9]
  percent protection as compared to control TMV infected leaves: 63.5%

## Nc1ncnc2c1ncn2[C@@H]1O[C@H](COP(=O)(O)OP(=O)(O)O[C@@H]2[C@H](O)[C@@H](CO)O[C@H]2n2cnc3c(N)ncnc32)[C@@H](O)[C@H]1O [Adenosine 2',5'-p^1,p^2-diadenosine, adenosine 2',5'-diphospho-adenosine]
[3]; TMV-infected discs, in words
  inhibition of TMV replication: effective inhibitor of TMV replication
[3]; Tobacco mosaic virus, 10^-6 M (Table 6), read-out: % Inhibition as related to control
  inhibition at 1 µM: 42%
[3]; Tobacco mosaic virus, 10^-7 M (Table 6), read-out: % Inhibition as related to control
  inhibition at 0.1 µM: 37%
[3]; Tobacco mosaic virus, 10^-8 M (Table 6), read-out: % Inhibition as related to control
  inhibition at 0.01 µM: 26.4%
[3]; Tobacco mosaic virus, 10^-9 M (Table 6), read-out: % Inhibition as related to control
  inhibition at 0.001 µM: 21%
[3]; Tobacco mosaic virus, 10^-10 M (Table 6), read-out: % Inhibition as related to control
  inhibition at 0.0001 µM: 0%

## Nc1ncnc2c1ncn2[C@@H]1O[C@H](COP(=O)(O)OP(=O)(O)OC[C@H]2O[C@@H](n3cnc4c(N)ncnc43)[C@@H]3OP(=O)(O)O[C@@H]32)[C@H]2OP(=O)(O)O[C@H]21 [P<A5'PP5'A>P, 2',3'-cyclic phospho-diadenosine 5',5'"-p^1,p^2-diphosphate]
[3]; in words, compared to dinucleotides with 2 and 3 internal phosphates
  antiviral activity/potency on structural modification: did not decrease their antiviral potency

## Nc1ncnc2c1ncn2[C@@H]1O[C@H](COP(=O)(O)OP(=O)(O)OC[C@H]2O[C@@H](n3cnc4c(N)ncnc43)[C@H](O)[C@@H]2O)[C@@H](O)[C@H]1O [A5'pp5'A, diadenosine 5',5'"-p^1,p^2 -diphosphate]
[3]; 100 nM, treatment with [Ca^+2] coprecipitation, control 75
  TMV content: 48 ngTMV/ml
[3]; 100 nM, treatment without [Ca^+2] coprecipitation, control 56
  TMV content: N.I.
[3]; 200 nM, treatment with [Ca^+2] coprecipitation, control 75
  TMV content: 44 ngTMV/ml
[3]; 200 nM, treatment without [Ca^+2] coprecipitation, control 56
  TMV content: N.I.
[3]; Tobacco mosaic virus, 100 nM, treatment with [Ca^+2] coprecipitation, read-out: percent inhibition as related to control
  inhibition at 0.1 µM: 36%
[3]; Tobacco mosaic virus, 100 nM, treatment without [Ca^+2] coprecipitation, read-out: percent inhibition as related to control
  inhibition at 0.1 µM: 0%
[3]; Tobacco mosaic virus, 200 nM, treatment with [Ca^+2] coprecipitation, read-out: percent inhibition as related to control
  inhibition at 0.2 µM: 41%
[3]; Tobacco mosaic virus, 200 nM, treatment without [Ca^+2] coprecipitation, read-out: percent inhibition as related to control
  inhibition at 0.2 µM: 0%
[1]; [4]
  percent protection as compared to control TMV infected leaves: 68.4%
[1]; [5]
  percent protection as compared to control TMV infected leaves: 96.0%
[1]; [6]
  percent protection as compared to control TMV infected leaves: 54.6%
[1]; [7]
  percent protection as compared to control TMV infected leaves: 95.4%
[1]; in words
  induced resistance to TMV infection in the non-treated half-leaf: resulted in an induced resistance to TMV infection even in the non-treated half-leaf
[1]; [8]
  percent protection as compared to control TMV infected leaves: 100%
[1]; [9]
  percent protection as compared to control TMV infected leaves: 100%
[2]
  suppression (inhibition) of the virus: 98-100%
  % Protection: 100%
  ng TMV/g of leaves: 0 ng TMV/g of leaves

## Nc1ncnc2c1ncn2[C@@H]1O[C@H](COP(=O)(O)OP(=O)(O)O[C@H]2[C@@H](O)[C@H](n3cnc4c(N)ncnc43)O[C@@H]2CO)[C@@H](O)[C@H]1O [A3'pp5'A, adenosine 3',5'-diphospho-adenosine]
[3]; 2 × 10^-9 M
  ng TMV/ml: 550 ng TMV/ml
[3]; 20 × 10^-9 M
  ng TMV/ml: 200 ng TMV/ml
[3]; 200 × 10^-9 M
  ng TMV/ml: 150 ng TMV/ml
[3]; TMV-infected discs, in words
  effectiveness in inhibiting TMV replication compared with 2',5'-adenylate trimer core: confer similar antiviral state
[3]; Tobacco mosaic virus, 2 × 10^-9 M (Table 4), read-out: % Inhibition as Related to Control
  inhibition at 0.002 µM: 0%
[3]; Tobacco mosaic virus, 20 × 10^-9 M (Table 4), read-out: % Inhibition as Related to Control
  inhibition at 0.02 µM: 64%
[3]; Tobacco mosaic virus, 200 × 10^-9 M (Table 4), read-out: % Inhibition as Related to Control
  inhibition at 0.2 µM: 73%
[1]; in words
  induced resistance to TMV infection in the non-treated half-leaf: resulted in an induced resistance to TMV infection even in the non-treated half-leaf
[1]; 10^-6 M, non-treated half leaf (Table 5)
  percent protection as compared to control TMV infected leaves: 93%
[1]; 10^-6 M, treated half leaf (Table 5)
  percent protection as compared to control TMV infected leaves: 100%
[1]; N. glutinosa intact plants, in words
  inhibition of TMV replication (inhibition of formation of local lesions): inhibited the TMV replication
